We go through one molecule from patent US20260174701A1, “HIGH STRENGTH SINGLE UNIT DOSE FORMULATIONS AND METHODS OF USE THEREOF” (Praxis Precision Medicines, Inc., priority 2023, published 2026).

The subject of experiment [1] is animal model of ET. Description: Animal model of ET. The settings on record: in vivo.
Experiment [2] addresses CaV3.1 (Homo sapiens, UniProt O43497). Description: In vitro electrophysiology studies. The format is cell-based.
Experiment [3] concerns the target CaV3.3 (Homo sapiens, UniProt Q9P0X4). The experiment is described as follows: In vitro electrophysiology studies. It is filed as cell-based.

CaV3.1, sequence (O43497 whole entry): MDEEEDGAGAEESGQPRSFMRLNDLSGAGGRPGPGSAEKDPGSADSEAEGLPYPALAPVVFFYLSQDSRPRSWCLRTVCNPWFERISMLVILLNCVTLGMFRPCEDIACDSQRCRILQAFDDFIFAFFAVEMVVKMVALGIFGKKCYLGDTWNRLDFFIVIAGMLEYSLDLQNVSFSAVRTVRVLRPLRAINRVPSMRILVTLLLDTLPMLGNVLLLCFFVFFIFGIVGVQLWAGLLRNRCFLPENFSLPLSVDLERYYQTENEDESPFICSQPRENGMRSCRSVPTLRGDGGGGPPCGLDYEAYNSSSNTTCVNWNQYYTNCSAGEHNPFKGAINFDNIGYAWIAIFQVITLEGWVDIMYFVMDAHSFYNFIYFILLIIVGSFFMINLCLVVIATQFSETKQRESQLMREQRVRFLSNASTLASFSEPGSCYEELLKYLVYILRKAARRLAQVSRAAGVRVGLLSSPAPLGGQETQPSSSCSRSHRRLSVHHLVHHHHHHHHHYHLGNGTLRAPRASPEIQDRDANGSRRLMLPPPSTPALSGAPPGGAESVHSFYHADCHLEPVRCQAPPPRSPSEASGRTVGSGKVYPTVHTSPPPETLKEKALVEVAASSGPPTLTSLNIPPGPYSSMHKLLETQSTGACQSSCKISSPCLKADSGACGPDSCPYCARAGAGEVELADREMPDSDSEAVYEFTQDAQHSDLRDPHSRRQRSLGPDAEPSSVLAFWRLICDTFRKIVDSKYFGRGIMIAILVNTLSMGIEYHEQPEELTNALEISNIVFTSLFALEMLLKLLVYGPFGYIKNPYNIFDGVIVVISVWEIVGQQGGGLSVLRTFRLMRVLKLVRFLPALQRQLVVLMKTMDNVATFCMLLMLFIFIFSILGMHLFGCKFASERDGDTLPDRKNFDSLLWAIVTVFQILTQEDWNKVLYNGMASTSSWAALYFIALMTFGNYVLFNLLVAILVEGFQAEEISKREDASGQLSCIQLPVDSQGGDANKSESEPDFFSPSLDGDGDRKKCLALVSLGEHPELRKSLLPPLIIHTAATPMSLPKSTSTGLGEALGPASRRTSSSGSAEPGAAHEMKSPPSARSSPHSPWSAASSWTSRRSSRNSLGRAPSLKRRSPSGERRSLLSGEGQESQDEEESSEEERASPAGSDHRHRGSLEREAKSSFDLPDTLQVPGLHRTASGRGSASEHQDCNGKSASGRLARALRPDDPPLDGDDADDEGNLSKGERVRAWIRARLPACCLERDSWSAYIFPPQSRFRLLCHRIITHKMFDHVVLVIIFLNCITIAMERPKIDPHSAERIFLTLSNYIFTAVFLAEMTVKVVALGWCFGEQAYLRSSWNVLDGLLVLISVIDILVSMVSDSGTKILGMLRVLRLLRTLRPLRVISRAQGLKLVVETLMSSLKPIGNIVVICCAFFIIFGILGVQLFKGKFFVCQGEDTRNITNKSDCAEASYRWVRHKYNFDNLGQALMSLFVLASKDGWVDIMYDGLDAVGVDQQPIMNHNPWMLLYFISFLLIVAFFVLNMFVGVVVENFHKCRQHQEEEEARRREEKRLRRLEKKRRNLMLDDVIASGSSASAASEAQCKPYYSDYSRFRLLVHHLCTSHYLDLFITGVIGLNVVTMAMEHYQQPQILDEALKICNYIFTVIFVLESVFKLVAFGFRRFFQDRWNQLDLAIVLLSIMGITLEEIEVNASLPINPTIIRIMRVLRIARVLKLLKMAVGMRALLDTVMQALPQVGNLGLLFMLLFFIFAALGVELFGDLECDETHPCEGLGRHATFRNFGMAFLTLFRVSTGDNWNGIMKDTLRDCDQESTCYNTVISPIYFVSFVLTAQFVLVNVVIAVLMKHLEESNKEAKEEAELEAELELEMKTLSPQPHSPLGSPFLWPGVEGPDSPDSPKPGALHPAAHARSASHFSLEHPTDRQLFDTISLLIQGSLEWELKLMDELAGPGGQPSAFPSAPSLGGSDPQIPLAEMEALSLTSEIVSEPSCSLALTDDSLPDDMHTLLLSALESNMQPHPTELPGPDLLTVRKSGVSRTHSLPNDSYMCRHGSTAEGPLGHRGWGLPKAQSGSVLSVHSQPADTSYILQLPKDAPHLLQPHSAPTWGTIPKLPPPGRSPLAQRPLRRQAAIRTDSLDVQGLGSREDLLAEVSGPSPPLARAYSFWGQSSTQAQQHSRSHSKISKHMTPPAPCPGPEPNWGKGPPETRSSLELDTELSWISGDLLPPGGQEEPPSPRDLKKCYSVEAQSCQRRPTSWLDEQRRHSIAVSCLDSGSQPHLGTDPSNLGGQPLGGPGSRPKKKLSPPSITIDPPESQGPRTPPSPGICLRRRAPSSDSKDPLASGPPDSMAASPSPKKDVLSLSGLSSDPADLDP
CaV3.3, sequence (Q9P0X4 whole entry): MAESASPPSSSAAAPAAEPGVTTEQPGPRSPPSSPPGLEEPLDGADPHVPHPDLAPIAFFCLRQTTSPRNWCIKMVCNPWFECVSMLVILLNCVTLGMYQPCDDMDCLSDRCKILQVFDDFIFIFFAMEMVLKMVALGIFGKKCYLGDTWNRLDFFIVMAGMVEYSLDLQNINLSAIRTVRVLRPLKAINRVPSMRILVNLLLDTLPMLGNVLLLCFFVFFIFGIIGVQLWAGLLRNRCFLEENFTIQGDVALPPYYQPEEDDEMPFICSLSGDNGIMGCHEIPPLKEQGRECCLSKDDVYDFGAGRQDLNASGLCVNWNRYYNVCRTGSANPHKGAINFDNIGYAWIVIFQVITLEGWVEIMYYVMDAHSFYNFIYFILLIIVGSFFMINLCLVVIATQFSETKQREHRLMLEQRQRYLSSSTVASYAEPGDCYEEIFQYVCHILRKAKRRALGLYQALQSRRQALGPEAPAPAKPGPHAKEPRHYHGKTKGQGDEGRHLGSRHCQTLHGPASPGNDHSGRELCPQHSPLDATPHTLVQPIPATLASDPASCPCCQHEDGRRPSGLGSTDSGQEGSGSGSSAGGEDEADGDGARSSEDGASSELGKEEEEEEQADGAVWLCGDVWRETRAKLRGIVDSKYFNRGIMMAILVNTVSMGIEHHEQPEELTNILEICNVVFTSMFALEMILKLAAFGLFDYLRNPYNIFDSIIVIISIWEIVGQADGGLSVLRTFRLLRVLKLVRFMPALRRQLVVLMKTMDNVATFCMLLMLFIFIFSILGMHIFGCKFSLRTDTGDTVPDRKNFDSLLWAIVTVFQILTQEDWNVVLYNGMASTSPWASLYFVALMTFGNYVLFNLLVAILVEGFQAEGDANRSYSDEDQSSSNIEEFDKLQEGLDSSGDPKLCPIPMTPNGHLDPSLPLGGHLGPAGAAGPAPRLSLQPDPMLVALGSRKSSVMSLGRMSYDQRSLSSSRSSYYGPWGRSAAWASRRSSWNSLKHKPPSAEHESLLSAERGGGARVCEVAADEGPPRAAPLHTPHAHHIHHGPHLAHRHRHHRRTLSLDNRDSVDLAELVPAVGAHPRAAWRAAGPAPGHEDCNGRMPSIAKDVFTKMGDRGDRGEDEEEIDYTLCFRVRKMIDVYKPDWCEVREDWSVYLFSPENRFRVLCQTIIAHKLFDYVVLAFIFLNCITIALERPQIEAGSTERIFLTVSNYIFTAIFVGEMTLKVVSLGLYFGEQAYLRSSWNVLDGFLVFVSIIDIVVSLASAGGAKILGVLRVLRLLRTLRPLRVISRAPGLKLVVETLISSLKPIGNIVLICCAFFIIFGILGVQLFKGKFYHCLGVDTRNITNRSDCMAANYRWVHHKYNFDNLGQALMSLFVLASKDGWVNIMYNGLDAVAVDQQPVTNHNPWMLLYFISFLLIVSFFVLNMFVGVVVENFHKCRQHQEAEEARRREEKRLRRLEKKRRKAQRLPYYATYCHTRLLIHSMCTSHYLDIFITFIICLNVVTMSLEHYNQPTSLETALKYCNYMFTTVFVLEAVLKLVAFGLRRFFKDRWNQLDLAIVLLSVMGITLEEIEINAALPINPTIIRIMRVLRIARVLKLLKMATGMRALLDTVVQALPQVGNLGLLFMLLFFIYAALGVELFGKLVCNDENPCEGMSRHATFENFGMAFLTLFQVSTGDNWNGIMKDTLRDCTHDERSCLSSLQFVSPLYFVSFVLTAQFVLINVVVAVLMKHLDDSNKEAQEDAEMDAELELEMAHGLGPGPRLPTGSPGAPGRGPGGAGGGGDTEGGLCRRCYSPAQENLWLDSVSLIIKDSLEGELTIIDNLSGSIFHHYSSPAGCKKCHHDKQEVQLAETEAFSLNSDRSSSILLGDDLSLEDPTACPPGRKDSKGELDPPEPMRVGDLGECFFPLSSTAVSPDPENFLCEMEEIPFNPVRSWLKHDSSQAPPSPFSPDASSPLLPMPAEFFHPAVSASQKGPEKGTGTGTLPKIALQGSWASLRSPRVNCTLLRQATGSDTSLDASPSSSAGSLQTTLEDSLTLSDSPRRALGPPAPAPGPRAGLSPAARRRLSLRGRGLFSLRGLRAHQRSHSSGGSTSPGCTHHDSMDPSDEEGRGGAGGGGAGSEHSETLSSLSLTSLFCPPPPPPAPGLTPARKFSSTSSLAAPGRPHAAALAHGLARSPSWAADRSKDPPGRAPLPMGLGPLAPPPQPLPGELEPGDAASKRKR

As for `CC(C)(C)NC(=O)CN1CCC(CNC(=O)c2cc(F)cc(Cl)c2)CC1.Cl` [PRAX-944, N-((1-(2-(tert-butylamino)-2-oxoethyl)piperidin-4-yl)methyl)-3-chloro-5-fluorobenzamide hydrochloride], the “Activity in an animal model of ET” value in experiment [1] was “robust activity”. The “Potency for T-type Ca2+ channels” value in experiment [2] and in experiment [3] was “nanomolar” each time.
